Assay results taken from PubChem BioAssay (NCI).
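GI50 marks 50% less growth. At the TGI there is no net growth.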

Assays:
Test in all cases: NCI tumour cell line growth inhibition, 384-well format
MOLT-4 leukemia = system: MOLT-4 leukemia
NCI-H226 lung = system: NCI-H226 lung
NCI-H23 lung = system: NCI-H23 lung
NCI-H322M lung = system: NCI-H322M lung
NCI-H460 NSCLC = system: NCI-H460 NSCLC
NCI-H522 lung = system: NCI-H522 lung
NCI/ADR-RES ovarian = system: NCI/ADR-RES ovarian
OVCAR-3 ovarian = system: OVCAR-3 ovarian
OVCAR-4 ovarian = system: OVCAR-4 ovarian
OVCAR-8 ovarian = system: OVCAR-8 ovarian
PC-3 prostate = system: PC-3 prostate
RPMI-8226 leukemia = system: RPMI-8226 leukemia
RXF 393 renal = system: RXF 393 renal
SF-268 CNS = system: SF-268 CNS
SF-295 CNS = system: SF-295 CNS
SF-539 CNS = system: SF-539 CNS
SK-MEL-28 melanoma = system: SK-MEL-28 melanoma
SK-MEL-5 melanoma = system: SK-MEL-5 melanoma
SK-OV-3 ovarian = system: SK-OV-3 ovarian
SN12C renal = system: SN12C renal
SNB-19 CNS = system: SNB-19 CNS
SNB-75 CNS = system: SNB-75 CNS
SR leukemia = system: SR leukemia
SW-620 colon = system: SW-620 colon
T-47D breast = system: T-47D breast
TK-10 renal = system: TK-10 renal
U251 glioblastoma = system: U251 glioblastoma
UACC-257 melanoma = system: UACC-257 melanoma
UACC-62 melanoma = system: UACC-62 melanoma
UO-31 renal = system: UO-31 renal

Q: For `Nc1cc(C(F)(F)F)c(-c2nc(N3CCOCC3)nc(N3CCOCC3)n2)cn1`, which TGI (MOLT-4 leukemia) is on record?
A: The TGI was 1610 nM.

Q: What about the GI50 (NCI-H226 lung) of the same compound?
A: The GI50 was 563 nM.

Q: And the TGI (NCI-H226 lung)?
A: Its TGI is 4350 nM.

Q: What about the GI50 (NCI-H23 lung) of the same compound?
A: The GI50 was 552 nM.

Q: What about the TGI (NCI-H23 lung) of the same compound?
A: The TGI was 15900 nM.

Q: What about the GI50 (NCI-H322M lung) of the same compound?
A: Its GI50 is 534 nM.

Q: What about the TGI (NCI-H322M lung) of the same compound?
A: Its TGI is 11500 nM.

Q: And the GI50 (NCI-H460 NSCLC)?
A: Its GI50 is 246 nM.

Q: What about the TGI (NCI-H460 NSCLC) of the same compound?
A: The TGI was 10400 nM.

Q: And the GI50 (NCI-H522 lung)?
A: The GI50 was 360 nM.

Q: What about the TGI (NCI-H522 lung) of the same compound?
A: The TGI was 10200 nM.

Q: And the GI50 (NCI/ADR-RES ovarian)?
A: Its GI50 is 1920 nM.

Q: What about the TGI (NCI/ADR-RES ovarian) of the same compound?
A: The TGI was 17300 nM.

Q: What about the GI50 (OVCAR-3 ovarian) of the same compound?
A: The GI50 was 354 nM.

Q: What about the TGI (OVCAR-3 ovarian) of the same compound?
A: Its TGI is 3920 nM.

Q: And the GI50 (OVCAR-4 ovarian)?
A: Its GI50 is 1480 nM.

Q: What about the TGI (OVCAR-4 ovarian) of the same compound?
A: Its TGI is 7900 nM.

Q: What about the GI50 (OVCAR-8 ovarian) of the same compound?
A: The GI50 was 1120 nM.

Q: What about the TGI (OVCAR-8 ovarian) of the same compound?
A: The TGI was 93600 nM.

Q: And the GI50 (PC-3 prostate)?
A: Its GI50 is 291 nM.

Q: And the TGI (PC-3 prostate)?
A: The TGI was 4270 nM.

Q: What about the GI50 (RPMI-8226 leukemia) of the same compound?
A: The GI50 was 221 nM.

Q: What about the TGI (RPMI-8226 leukemia) of the same compound?
A: The TGI was 1270 nM.

Q: What about the GI50 (RXF 393 renal) of the same compound?
A: The GI50 was 1150 nM.

Q: What about the TGI (RXF 393 renal) of the same compound?
A: Its TGI is 4960 nM.

Q: What about the GI50 (SF-268 CNS) of the same compound?
A: Its GI50 is 1460 nM.

Q: What about the TGI (SF-268 CNS) of the same compound?
A: Its TGI is 18200 nM.

Q: And the GI50 (SF-295 CNS)?
A: The GI50 was 405 nM.

Q: What about the TGI (SF-295 CNS) of the same compound?
A: Its TGI is 2440 nM.

Q: And the GI50 (SF-539 CNS)?
A: The GI50 was 1150 nM.

Q: And the TGI (SF-539 CNS)?
A: The TGI was 13700 nM.

Q: What about the GI50 (SK-MEL-28 melanoma) of the same compound?
A: Its GI50 is 461 nM.

Q: And the TGI (SK-MEL-28 melanoma)?
A: The TGI was 6540 nM.

Q: And the GI50 (SK-MEL-5 melanoma)?
A: The GI50 was 503 nM.

Q: What about the TGI (SK-MEL-5 melanoma) of the same compound?
A: The TGI was 2810 nM.

Q: What about the GI50 (SK-OV-3 ovarian) of the same compound?
A: Its GI50 is 332 nM.

Q: What about the TGI (SK-OV-3 ovarian) of the same compound?
A: Its TGI is 2040 nM.

Q: And the GI50 (SN12C renal)?
A: The GI50 was 195 nM.

Q: And the TGI (SN12C renal)?
A: The TGI was 2300 nM.

Q: What about the GI50 (SNB-19 CNS) of the same compound?
A: Its GI50 is 8530 nM.

Q: And the TGI (SNB-19 CNS)?
A: Its TGI is 50200 nM.

Q: And the GI50 (SNB-75 CNS)?
A: The GI50 was 288 nM.

Q: And the TGI (SNB-75 CNS)?
A: Its TGI is 2920 nM.

Q: And the TGI (SR leukemia)?
A: The TGI was 255 nM.

Q: What about the GI50 (SW-620 colon) of the same compound?
A: The GI50 was 2600 nM.

Q: And the TGI (SW-620 colon)?
A: The TGI was greater than 100000 nM.

Q: What about the GI50 (T-47D breast) of the same compound?
A: Its GI50 is 107 nM.

Q: What about the TGI (T-47D breast) of the same compound?
A: The TGI was 583 nM.

Q: And the GI50 (TK-10 renal)?
A: The GI50 was 432 nM.

Q: And the TGI (TK-10 renal)?
A: The TGI was 3870 nM.

Q: What about the GI50 (U251 glioblastoma) of the same compound?
A: Its GI50 is 3230 nM.

Q: What about the TGI (U251 glioblastoma) of the same compound?
A: Its TGI is 95500 nM.

Q: And the GI50 (UACC-257 melanoma)?
A: The GI50 was 1700 nM.

Q: And the TGI (UACC-257 melanoma)?
A: Its TGI is 20800 nM.

Q: And the GI50 (UACC-62 melanoma)?
A: Its GI50 is 520 nM.

Q: What about the TGI (UACC-62 melanoma) of the same compound?
A: Its TGI is 3790 nM.

Q: And the GI50 (UO-31 renal)?
A: Its GI50 is 426 nM.

Q: What about the TGI (UO-31 renal) of the same compound?
A: Its TGI is 19200 nM.
